The test system of the experiment is adenovirus type 6 (ADV6). Put plainly: Evaluation of anti-adenovirus activity: CRL-11516 cells infected with ADV6, anti-hexon staining, count of stained cells. The format is cell-based. Here is the method: A system in which CRL-11516 cells (available from ATCC) were infected with adenovirus type 6 (hereinafter, referred to as ADV6) was constructed, and a test for evaluating the anti-adenovirus activity of the compound according to the embodiment of the present invention and the compound of Comparative Example was carried out using the system. The test for evaluating the anti-adenovirus activity was carried out according to the method described below.
CRL-11516 cells were added to a 96-well plate at a cell density of 1×10^4 cells/well and cultured at 37° C. for 24 hours. After the culture was completed, the cell culture liquid was removed, and a serial dilution (100 μL) of the compound according to the embodiment of the present invention or the compound of Comparative Example was added. ADV6 (corresponding to 50TCID50) was added thereto, followed by culturing at 37° C. for 48 hours.
After the culture was completed, the infected cells were stained using Adeno-X Rapid Titer Kit (manufactured by Takara Bio Inc.). 100% methanol was added thereto and the cells were fixed at −20° C. for 10 minutes. The plate was washed three times with phosphate buffered saline (hereinafter, referred to as PBS) and then Mouse Anti-Hexon Antibody was added thereto, followed by incubation at 37° C. for 1 hour. After the incubation was completed, the plate was washed three times with PBS, and Rat Anti-Mouse Antibody was added thereto, followed by incubation at 37° C. for 1 hour. After the incubation was completed, a mixed staining solution of Stable Peroxidase Buffer:DAB Substrate=10:1 was added thereto, followed by incubation at room temperature for 10 minutes for staining of the cells.
The number of dark brown-stained cells was counted under a microscope, and the concentration of the test drug that reduces the dark brown-stained cells by 50% was defined as EC50. EC50 values were calculated for the triplicate test results, and a mean value and a standard deviation thereof were determined.

Setting [1] is: Human mastadenovirus C, 48 h, CRL-11516 cells infected with ADV6, 48 hours culture, concentration reducing dark brown-stained cells by 50%; read-out: Anti-AdV activity EC50.
Setting [2] is: CRL-11516 cells infected with ADV6, 48 hours culture, concentration reducing dark brown-stained cells by 50%; read-out: Anti-AdV activity EC50.

Where two headings read alike, the source gives them in different places. Some results are limits rather than exact numbers.

With `CC(C)OC(=O)[C@H](C)NP(=O)(OC[C@@H]1C=C[C@H](n2cnc3c(NC4CC4)nc(N)nc32)C1)Oc1ccccc1` (stereo partly drawn) [Example 2-2-2, Isopropyl ((((1S,4R)-4-(2-amino-6-(cyclopropyl-amino)-9H-purin-9-yl)cyclopent-2-en-1-yl)methoxy) (phenoxy)phosphoryl)-L-alaninate], the EC50 under setting [1] lay within 100 to 1000 nM. Consider `COc1nc(N)nc2c1ncn2[C@H]1C=C[C@@H](COP(=O)(OCCSC(=O)C(C)(C)C)Oc2ccccc2)C1` (stereo partly drawn) [Example 2-1, S-(2-(((((1S,4R)-4-(2-amino-6-methoxy-9H-purin-9-yl)cyclopent-2-en-1-yl)methoxy)(phenoxy)phosphoryl)oxy)ethyl) 2,2-dimethylpropanethioate], for which, under “read-out: Anti-AdV activity EC50; CRL-11516 cells infected with ADV6, 48 hours culture, concentration reducing dark brown-stained cells by 50%”, the EC50 was less than 10 nM. In the case of `CC(C)OC(=O)[C@H](C)N[P@@](=O)(OC[C@@H]1C=C[C@H](n2cnc3c(OC4CCC4)nc(N)nc32)C1)Oc1ccccc1` [Example 2-2-35, isopropyl ((R)-(((1S,4R)-4-(2-amino-6-cyclobutoxy-9H-purin-9-yl)cyclopent-2-en-1-yl)methoxy)(phenoxy)phosphoryl)-L-alaninate], the EC50 under setting [1] is 10 to 100 nM.

With `COC(=O)[C@H](C)NP(=O)(OC[C@@H]1C=C[C@H](n2cnc3c(OC)nc(N)nc32)C1)Oc1ccccc1` (stereo partly drawn) [Example 4-2-1, methyl ((((1 S,4R)-4-(2-amino-6-methoxy-9H-purin-9-yl)cyclopent-2-en-1-yl)methoxy)(phenoxy)phosphoryl)-L-alaninate], under setting [1], the EC50 is 10 to 100 nM. For `CC(C)OC(=O)[C@H](C)NP(=O)(OC[C@@H]1C=C[C@H](n2cnc3c(Cl)nc(N)nc32)C1)Oc1ccccc1` (stereo partly drawn) [Example 4-3-2, Isopropyl ((((1 S,4R)-4-(2-amino-6-chloro-9H-purin-9-yl)cyclopent-2-en-1-yl)methoxy)(phenoxy)phosphoryl)-L-alaninate], the EC50 under setting [2] lay within 100 to 1000 nM.

`COC(=O)[C@H](C)NP(=O)(OC[C@@H]1C=C[C@H](n2cnc3c(OC)nc(N)nc32)C1)Oc1ccc(Cl)cc1` (stereo partly drawn) [Example 1-2-2, methyl ((((1S,4R)-4-(2-amino-6-methoxy-9H-purin-9-yl)cyclopent-2-en-1-yl)methoxy)(4-chlorophenoxy)phosphoryl)-L-alaninate]: the EC50 under setting [1] is less than 10 nM.

Take `COc1nc(N)nc2c1ncn2[C@H]1C=C[C@@H](COP(=O)(N[C@@H](C)C(=O)OC(C)C)Oc2cccc3ccccc23)C1` (stereo partly shown) [Example 6-2-25]: the EC50 under setting [2] is less than 10 nM.

One may read the EC50 as the concentration giving half of the maximal effect.

(Values after US20210155644A1, “CYCLOPENTENYL PURINE DERIVATIVE OR SALT THEREOF” (Fujifilm Corporation, priority 2018, published 2021).)
